In doi:10.1101/2021.10.07.463234v2 (biorxiv, 2021):
Where a name gives a salt, the structure may show the parent alone.

Molecular target: SARS-CoV-2 Mac1 (Severe acute respiratory syndrome coronavirus 2, UniProt P0DTD1)
Assay: biochemical
Conditions: 100 µM; inhibitor

Question: With CC(C)(C)c1nc(-c2cccc(NS(=O)(=O)c3c(F)cccc3F)c2F)c(-c2ccnc(N)n2)s1 [Dabrafenib (GSK2118436)] as the compound, how does the “%inhibition” value read?
Answer: The value was 34.76%.

Question: How did the “%inhibition” value turn out when CC(C)(C)c1nc(-c2cccc(NS(=O)(=O)c3c(F)cccc3F)c2F)c(-c2ccnc(N)n2)s1 [Dabrafenib Mesylate] was run?
Answer: The value was 0.5368%.

Question: O=C1CN(/N=C/c2ccc(-c3ccc([N+](=O)[O-])cc3)o2)C(=O)N1 [Dantrolene sodium hemiheptahydrate] was tested. Which “%inhibition” value did it give?
Answer: The value was 2.991%.

Question: How did the “%inhibition” value turn out when O=C1CN(/N=C/c2ccc(-c3ccc([N+](=O)[O-])cc3)o2)C(=O)N1 [Dantrolene sodium] was run?
Answer: The value was 11.92%.

Question: With CCOc1ccc(Cc2cc([C@@H]3O[C@H](CO)[C@@H](O)[C@H](O)[C@H]3O)ccc2Cl)cc1 [Dapagliflozin propanediol monohydrate] as the compound, how does the “%inhibition” value read?
Answer: The value was 0%.

Question: Which “%inhibition” value does the source give for CCOc1ccc(Cc2cc([C@@H]3O[C@H](CO)[C@@H](O)[C@H](O)[C@H]3O)ccc2Cl)cc1 [Dapagliflozin] here?
Answer: Its value is 1.439%.

Same assay, conditions: read-out: %inhibition

Question: C[C@@H](Oc1cc(-c2cnn(C3CCNCC3)c2)cnc1N)c1c(Cl)ccc(F)c1Cl [Crizotinib (PF-02341066)] was tested. Which inhibition at 100 µM did it give?
Answer: The inhibition at 100 µM was 6.7%.

Question: COc1cc(/C=C/C(=O)CC(=O)/C=C/c2ccc(O)c(OC)c2)ccc1O [Curcumin] was tested. Which inhibition at 100 µM did it give?
Answer: Its inhibition at 100 µM is 1.88%.

Question: For CC1CC(OC(=O)C(O)c2ccccc2)CC(C)(C)C1 (stereo not shown) [Cyclandelate], which inhibition at 100 µM is on record?
Answer: Its inhibition at 100 µM is 0%.

Question: C1CNCCNCCNCCN1 [Cyclen] was tested. Which inhibition at 100 µM did it give?
Answer: Its inhibition at 100 µM is 0%.

Question: Which inhibition at 100 µM does the source give for CN1CCN(C(c2ccccc2)c2ccccc2)CC1 [Cyclizine 2HCl] here?
Answer: The inhibition at 100 µM was 9.76%.

Question: CN(C)CCC=C1c2ccccc2C=Cc2ccccc21 [Cyclobenzaprine HCl] was tested. Which inhibition at 100 µM did it give?
Answer: Its inhibition at 100 µM is 3.24%.

Question: For CC(=O)Oc1ccc(C(=C2CCCCC2)c2ccc(OC(C)=O)cc2)cc1 [Cyclofenil], which inhibition at 100 µM is on record?
Answer: The inhibition at 100 µM was 11.6%.

Question: How did the inhibition at 100 µM turn out when CC(=O)O[C@]1(C(C)=O)CC[C@H]2[C@@H]3C=C(Cl)C4=CC(=O)[C@@H]5C[C@@H]5[C@]4(C)[C@H]3CC[C@@]21C [Cyproterone Acetate] was run?
Answer: The inhibition at 100 µM was 0%.

Question: With Nc1nc(N)nc(NC2CC2)n1 [Cyromazine] as the compound, how does the inhibition at 100 µM read?
Answer: The inhibition at 100 µM was 20.5%.

Question: For NCCS [Cysteamine HCl], which inhibition at 100 µM is on record?
Answer: Its inhibition at 100 µM is 35.3%.

Question: Which inhibition at 100 µM does the source give for Nc1ccn([C@@H]2O[C@H](CO)[C@@H](O)[C@@H]2O)c(=O)n1 [Cytarabine] here?
Answer: Its inhibition at 100 µM is 0%.

Question: Which inhibition at 100 µM does the source give for O=c1cccc2n1C[C@@H]1CNC[C@H]2C1 [Cytisine] here?
Answer: The inhibition at 100 µM was 0%.

Question: How did the inhibition at 100 µM turn out when CC(C)(CO)[C@@H](O)C(=O)NCCCO [D panthenol] was run?
Answer: Its inhibition at 100 µM is 0%.

Question: Which inhibition at 100 µM does the source give for N[C@@H]1CONC1=O [D-Cycloserine] here?
Answer: Its inhibition at 100 µM is 6.32%.

Question: How did the inhibition at 100 µM turn out when OC[C@@H](O)[C@@H](O)[C@H](O)[C@H](O)CO [D-Mannitol] was run?
Answer: Its inhibition at 100 µM is 0%.

Question: Which inhibition at 100 µM does the source give for N[C@H](Cc1ccccc1)C(=O)O [D-Phenylalanine] here?
Answer: The inhibition at 100 µM was 4.94%.

Question: NC(=O)CC[C@@H](N)C(=O)O [D-glutamine] was tested. Which inhibition at 100 µM did it give?
Answer: Its inhibition at 100 µM is 2.59%.

Question: How did the inhibition at 100 µM turn out when CCCCCCOC(=O)NC(=N)c1ccc(NCc2nc3cc(C(=O)N(CCC(=O)OCC)c4ccccn4)ccc3n2C)cc1 [Dabigatran Etexilate] was run?
Answer: Its inhibition at 100 µM is 0%.

Question: Which inhibition at 100 µM does the source give for CN(C)/N=N/c1[nH]cnc1C(N)=O [Dacarbazine] here?
Answer: The inhibition at 100 µM was 26.1%.

Question: COC(=O)N[C@H](C(=O)N1CCC[C@H]1c1ncc(-c2ccc(-c3ccc(-c4cnc([C@@H]5CCCN5C(=O)[C@@H](NC(=O)OC)C(C)C)[nH]4)cc3)cc2)[nH]1)C(C)C [Daclatasvir (BMS-790052)] was tested. Which inhibition at 100 µM did it give?
Answer: Its inhibition at 100 µM is 1.65%.

Question: For COc1cc2ncnc(Nc3ccc(F)c(Cl)c3)c2cc1NC(=O)/C=C/CN1CCCCC1 [Dacomitinib (PF299804, PF299)], which inhibition at 100 µM is on record?
Answer: Its inhibition at 100 µM is 3.46%.

Question: CN[C@H]1C(=O)N[C@@H]2Cc3ccc(cc3)Oc3cc4cc(c3O[C@@H]3O[C@H](C(=O)O)[C@@H](O)[C@H](O)[C@H]3NC(=O)CCCCCCCCC(C)C)Oc3ccc(cc3Cl)[C@@H](O)[C@@H]3NC(=O)[C@H](NC(=O)[C@@H]4NC(=O)[C@@H](NC2=O)c2cc(cc(O)c2Cl)Oc2cc1ccc2O)c1ccc(O)c(c1)-c1c(O[C@H]2O[C@H](CO)[C@@H](O)[C@H](O)[C@@H]2O)cc(O)cc1[C@@H](C(=O)NCCCN(C)C)NC3=O [Dalbavancin] was tested. Which inhibition at 100 µM did it give?
Answer: The inhibition at 100 µM was 23.4%.

Question: With CN1C[C@@H]2C[C@H]1CN2c1cc2c(cc1F)c(=O)c(C(=O)O)cn2C1CC1 [Danofloxacin Mesylate] as the compound, how does the inhibition at 100 µM read?
Answer: The inhibition at 100 µM was 0%.

Question: With O=C1c2cccc(O)c2C(=O)c2c(O)cccc21 [Danthron] as the compound, how does the inhibition at 100 µM read?
Answer: Its inhibition at 100 µM is 0%.

Question: Which inhibition at 100 µM does the source give for Cc1ccccc1N1CCN(CCc2nnc3n2CCCC3)CC1 [Dapiprazole Hydrochloride] here?
Answer: Its inhibition at 100 µM is 12.7%.

Question: For CN(C)[C@@H](CCOc1cccc2ccccc12)c1ccccc1 [Dapoxetine HCl], which inhibition at 100 µM is on record?
Answer: The inhibition at 100 µM was 35.7%.

Question: Which inhibition at 100 µM does the source give for Nc1ccc(S(=O)(=O)c2ccc(N)cc2)cc1 [Dapson] here?
Answer: Its inhibition at 100 µM is 0%.

Question: With CCCCCCCCCC(=O)N[C@@H](Cc1c[nH]c2ccccc12)C(=O)N[C@H](CC(N)=O)C(=O)N[C@@H](CC(=O)O)C(=O)N[C@@H]1C(=O)NCC(=O)N[C@@H](CCCN)C(=O)N[C@@H](CC(=O)O)C(=O)N[C@H](C)C(=O)N[C@@H](CC(=O)O)C(=O)NCC(=O)N[C@H](CO)C(=O)N[C@@H]([C@H](C)CC(=O)O)C(=O)N[C@@H](CC(=O)c2ccccc2N)C(=O)O[C@@H]1C [Daptomycin] as the compound, how does the inhibition at 100 µM read?
Answer: The inhibition at 100 µM was 1.7%.

Question: With NC(=O)C(c1ccccc1)(c1ccccc1)[C@@H]1CCN(CCc2ccc3c(c2)CCO3)C1 [Darifenacin HBr] as the compound, how does the inhibition at 100 µM read?
Answer: The inhibition at 100 µM was 0%.

Question: For CC(C)CN(C[C@@H](O)[C@H](Cc1ccccc1)NC(=O)O[C@H]1CO[C@H]2OCC[C@H]21)S(=O)(=O)c1ccc(N)cc1 [Darunavir Ethanolate], which inhibition at 100 µM is on record?
Answer: Its inhibition at 100 µM is 0%.

Question: Which inhibition at 100 µM does the source give for COc1c(-c2ccc3cc(NS(C)(=O)=O)ccc3c2)cc(-n2ccc(=O)[nH]c2=O)cc1C(C)(C)C [Dasabuvir(ABT-333)] here?
Answer: Its inhibition at 100 µM is 0.42%.

Question: With COc1cccc2c1C(=O)c1c(O)c3c(c(O)c1C2=O)C[C@@](O)(C(C)=O)C[C@@H]3O[C@H]1C[C@H](N)[C@H](O)[C@H](C)O1 [Daunorubicin HCl] as the compound, how does the inhibition at 100 µM read?
Answer: The inhibition at 100 µM was 30.2%.

Question: For C[N+](C)(C)CCCCCCCCCC[N+](C)(C)C [Decamethonium Bromide], which inhibition at 100 µM is on record?
Answer: Its inhibition at 100 µM is 0%.

Question: For Nc1ncn([C@H]2C[C@H](O)[C@@H](CO)O2)c(=O)n1 [Decitabine], which inhibition at 100 µM is on record?
Answer: Its inhibition at 100 µM is 0%.

Question: Which inhibition at 100 µM does the source give for CNC(=O)c1ccc(Nc2ncc(C(F)(F)F)c(NCc3nccnc3N(C)S(C)(=O)=O)n2)cc1 [Defactinib (VS-6063, PF-04554878)] here?
Answer: Its inhibition at 100 µM is 0%.

Question: Which inhibition at 100 µM does the source give for O=C(O)c1ccc(-n2nc(-c3ccccc3O)nc2-c2ccccc2O)cc1 [Deferasirox] here?
Answer: Its inhibition at 100 µM is 16.8%.

Question: With Cc1c(O)c(=O)ccn1C [Deferiprone] as the compound, how does the inhibition at 100 µM read?
Answer: Its inhibition at 100 µM is 0%.

Question: With CC(=O)OCC(=O)[C@@]12N=C(C)O[C@@H]1C[C@H]1[C@@H]3CCC4=CC(=O)C=C[C@]4(C)[C@H]3[C@@H](O)C[C@@]12C [Deflazacort] as the compound, how does the inhibition at 100 µM read?
Answer: The inhibition at 100 µM was 37.4%.

Question: For C[C@H](CCC(=O)O)[C@H]1CC[C@H]2[C@@H]3C(=O)C[C@@H]4CC(=O)CC[C@]4(C)[C@H]3CC(=O)[C@]12C [Dehydrocholic acid], which inhibition at 100 µM is on record?
Answer: Its inhibition at 100 µM is 0%.

Question: How did the inhibition at 100 µM turn out when CC(=O)O[C@H]1CC[C@@]2(C)C(=CC[C@@H]3[C@@H]2CC[C@]2(C)C(=O)CC[C@@H]32)C1 [Dehydroepiandrosterone acetate] was run?
Answer: The inhibition at 100 µM was 15.8%.

Question: With C[C@]1(COc2ccc(N3CCC(Oc4ccc(OC(F)(F)F)cc4)CC3)cc2)Cn2cc([N+](=O)[O-])nc2O1 [Delamanid] as the compound, how does the inhibition at 100 µM read?
Answer: Its inhibition at 100 µM is 22.1%.

Question: With CC(C)C[C@H](NC(=O)[C@@H](NC(=O)c1cccc(-c2ccccc2)n1)[C@@H](C)O)B(O)O [Delanzomib (CEP-18770)] as the compound, how does the inhibition at 100 µM read?
Answer: Its inhibition at 100 µM is 0%.

Question: CCOC(=O)[C@H](CCc1ccccc1)N[C@@H](C)C(=O)N(CC(=O)O)C1Cc2ccccc2C1 [Delapril Hydrochloride] was tested. Which inhibition at 100 µM did it give?
Answer: Its inhibition at 100 µM is 0.215%.
